Experimental data: patent US12404519B2 (priority 2013, dated 2025)
Where a SMILES comes first, the peptide text is derived from it.

Assays:
[1] = system: Fusarium graminearum PH-1
pathogenic fungi = conditions: pure protein added to in vitro antifungal assay medium; cited from earlier work

In the case of `C[C@H](NC(=O)CN)C(=O)N[C@@H](CS)C(=O)N[C@@H](Cc1c[nH]cn1)C(=O)N[C@@H](CCCNC(=N)N)C(=O)N[C@@H](CCC(N)=O)C(=O)NCC(=O)N[C@@H](Cc1ccccc1)C(=O)NCC(=O)N[C@@H](Cc1ccccc1)C(=O)N[C@@H](C)C(=O)N[C@@H](CS)C(=O)N[C@@H](Cc1ccccc1)C(=O)N[C@@H](CS)C(=O)N[C@@H](Cc1ccc(O)cc1)C(=O)N[C@@H](CCCCN)C(=O)N[C@@H](CCCCN)C(=O)N[C@@H](CS)C(=O)O` [GMA-5C, GACHRQGFGFACFCYKKC] (H-GACHRQGFGFACFCYKKC-OH; N-terminus and C-terminus assumed), the “IC100 (concentration required for 100% inhibition of fungal growth)” value [1] is reported as “about 24 μM” and the IC50 ([1]; 24 h) is reported as 6 to 12 µM.
In the case of “Rs-AFP2: small cysteine-rich protein isolated from radish seed (QKLCQRPSGTWSGVCGNNNACKNQCIRLEKARHGSCNYVFPAHKCICYFPC; UniProt P30230 30-80, looked up)”, the “Growth inhibition of pathogenic fungi in vitro” value (pathogenic fungi) is listed as “inhibited the growth of many pathogenic fungi”.
In the case of “Rs-AFP1: small cysteine-rich protein isolated from radish seed (QKLCERPSGTWSGVCGNNNACKNQCINLEKARHGSCNYVFPAHKCICYFPC; UniProt P69241 30-80, looked up)”, the “Growth inhibition of pathogenic fungi in vitro” value (pathogenic fungi) is given as “inhibited the growth of many pathogenic fungi”.
